Legend:
[1] = tested on: corn; experiment: Test A pre-/postemergence herbicide test; type: in vivo, Zea mays
Outline: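 Seeds sown in loam soil/sand blend received a preemergence directed soil spray of test chemical in non-phytotoxic solvent with surfactant; postemergence plants (2–10 cm, one- to two-leaf stage) were sprayed with the same formulation. After about 10 days in greenhouse, injury was rated visually versus untreated controls, 0 (no effect) to 100 (complete control).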

[2] = tested on: johnsongrass; experiment: Test C pre-/postemergence herbicide test; type: in vivo, Sorghum halepense
Outline: (§1)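 Visual rating, 0 (no effect) to 100 (complete control), versus untreated controls after 13 to 15 days in the greenhouse. Pre: seeds in loam/sand, sprayed at planting. Post: 1- to 4-leaf plants (2 to 18 cm) in peat-based mix. Compounds in non-phytotoxic solvent plus surfactant.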

[3] = tested on: lambsquarters; experiment: Test C pre-/postemergence herbicide test; type: in vivo, Chenopodium album
Outline: as §1

[4] = tested on: morningglory; experiment: Test C pre-/postemergence herbicide test; type: in vivo, Ipomoea coccinea
Outline: as §1

[5] = tested on: ragweed; experiment: Test C pre-/postemergence herbicide test; type: in vivo, Ambrosia elatior
Outline: as §1

[6] = tested on: soybean; experiment: Test C pre-/postemergence herbicide test; type: in vivo, Glycine max; conditions: for Soybean plant response rating: scale 0 to 100, 0 is no effect and 100 is complete control
Outline: as §1

[7] = tested on: barnyardgrass; experiment: Test C pre-/postemergence herbicide test; type: in vivo, Echinochloa crus-galli; conditions: for Barnyardgrass plant response rating: scale 0 to 100, 0 is no effect and 100 is complete control
Outline: as §1

[8] = tested on: waterhemp; experiment: Test C pre-/postemergence herbicide test; type: in vivo, Amaranthus rudis
Outline: as §1

[9] = tested on: oat, wild; experiment: Test C pre-/postemergence herbicide test; type: in vivo, Avena fatua; conditions: Postemergence
Outline: as §1

[10] = Postemergence, 31 g ai/ha, scale 0 (no effect) to 100 (complete control)
[11] = Postemergence, 62 g ai/ha, scale 0 to 100 (0 no effect, 100 complete control)
[12] = Postemergence, 125 g ai/ha, scale 0 to 100 (0 no effect, 100 complete control)
[13] = Postemergence, 250 g ai/ha, scale 0 to 100 (0 no effect, 100 complete control)
[14] = Preemergence, 31 g ai/ha, scale 0 to 100, 0 is no effect and 100 is complete control
[15] = Preemergence, 62 g ai/ha, scale 0 to 100
[16] = Preemergence, 125 g ai/ha, scale 0 to 100 (0 no effect, 100 complete control)
[17] = 125 g ai/ha, scale 0 to 100 (0 no effect, 100 complete control)
[18] = 250 g ai/ha, scale 0 to 100 (0 no effect, 100 complete control)
[19] = Postemergence, 31 g ai/ha, scale 0 to 100 (0 no effect, 100 complete control)
[20] = Postemergence, 62 g ai/ha, scale 0 (no effect) to 100 (complete control)
[21] = Preemergence, 62 g ai/ha, scale 0 to 100 (0 no effect, 100 complete control)

O=C1NCC(c2ccc(F)c(F)c2)C1C(=O)Nc1cccc(F)c1F (racemic) [Compound 101]
10: Plant response rating, Lambsquarters [3, 10] | Plant response rating (scale of 0 to 100), Soybean ([6]; Preemergence, 250 g ai/ha)
25: Plant response rating, Lambsquarters [3, 11] | Plant response rating, Morningglory [4, 12] | Plant response rating (scale of 0 to 100), Morningglory ([4]; Preemergence, 250 g ai/ha)
35: Plant response rating, Lambsquarters [3, 12] | Plant response rating, Barnyardgrass [7, 11] | Plant response rating, Waterhemp [8, 13]
55: Plant response rating, Johnsongrass [2, 16] | Plant response rating, Morningglory [4, 13]
85: Plant response rating, Lambsquarters [3, 15] | Plant response rating (scale of 0 to 100), Waterhemp ([8]; Preemergence, 250 g ai/ha)
95: Plant response rating, Barnyardgrass [7, 15] | Plant response rating, Barnyardgrass [7, 16] | Plant response rating (scale of 0 to 100; 0 is no effect, 100 is complete control), Barnyardgrass ([7]; Preemergence, 250 g ai/ha)
20: Plant response rating, Waterhemp [8, 12]
70: Plant response rating, Lambsquarters [3, 13] | Plant response rating, Waterhemp [8, 15]
15: Plant response rating, Johnsongrass [2, 15] | Plant response rating, Morningglory [4, 10] | Plant response rating, Morningglory [4, 11] | Ragweed plant response rating [5, 14]
0: Plant response rating, Corn ([1]; Postemergence, 125 g ai/ha, 0 to 100 scale, 0 no effect, 100 complete control) | Corn plant response rating ([1]; Preemergence, 125 g ai/ha, visual rating on 0 to 100 scale (0 no effect, 100 complete control)) | Plant response rating, Corn ([1]; preemergence, 500 g ai/ha, 0 to 100 scale) | Plant response rating, Johnsongrass [2, 10] | Plant response rating, Johnsongrass [2, 11] | Plant response rating, Johnsongrass [2, 12] | Plant response rating, Johnsongrass [2, 13] | Johnsongrass plant response rating [2, 14] | Morningglory plant response rating [4, 14] | Plant response rating, Morningglory [4, 15] | Plant response rating, Ragweed [5, 10] | Plant response rating, Ragweed [5, 11] | Plant response rating, Ragweed [5, 15] | Plant response rating, Soybean [6, 10] | Plant response rating, Soybean [6, 11] | Soybean plant response rating ([6]; Preemergence, 31 g ai/ha) | Plant response rating, Soybean [6, 15] | Plant response rating, Soybean [6, 16] | Plant response rating, Barnyardgrass [7, 10] | Plant response rating, Waterhemp [8, 10] | Plant response rating, Oat, Wild ([9]; 31 g ai/ha, scale 0 (no effect) to 100 (complete control)) | Plant response rating, Oat, Wild ([9]; 62 g ai/ha, scale 0 to 100 (0 no effect, 100 complete control)) | Plant response rating, Oat, Wild [9, 17] | Plant response rating, Oat, Wild [9, 18]
90: Plant response rating, Lambsquarters [3, 16] | Plant response rating (scale of 0 to 100), Lambsquarters ([3]; Preemergence, 250 g ai/ha) | Plant response rating, Barnyardgrass [7, 13] | Barnyardgrass plant response rating ([7]; Preemergence, 31 g ai/ha)
65: Plant response rating, Barnyardgrass [7, 12]
30: Lambsquarters plant response rating [3, 14] | Plant response rating, Morningglory [4, 16]
50: Plant response rating, Corn ([1]; Postemergence, 500 g ai/ha, 0 to 100 scale (0 no effect, 100 complete control)) | Waterhemp plant response rating [8, 14] | Plant response rating, Waterhemp [8, 16]
45: Plant response rating, Ragweed [5, 13]
75: Plant response rating (scale of 0 to 100), Johnsongrass ([2]; Preemergence, 250 g ai/ha)
5: Plant response rating, Ragweed [5, 12] | Plant response rating, Ragweed [5, 16] | Plant response rating (scale of 0 to 100), Ragweed ([5]; Preemergence, 250 g ai/ha) | Plant response rating, Soybean [6, 12] | Plant response rating, Soybean [6, 13] | Plant response rating, Waterhemp [8, 11]

O=C1NC[C@H](c2cccc(C(F)(F)F)c2)[C@H]1C(=O)Nc1ccccc1F [Compound 204, (3R,4S)—N-(2-fluorophenyl)-2-oxo-4-[3-(trifluoromethyl)phenyl]-3-pyrrolidinecarboxamide]
55: Plant response rating, Barnyardgrass [7, 20]
30: Plant response rating, Lambsquarters [3, 13] | Ragweed plant response rating [5, 14] | Ragweed plant response rating [5, 21]
100: Lambsquarters plant response rating [3, 14] | Lambsquarters plant response rating [3, 21] | Plant response rating (scale of 0 to 100), Lambsquarters ([3]; Preemergence, 250 g ai/ha) | Plant response rating, Ragweed [5, 16] | Waterhemp plant response rating [8, 14]
60%: Corn plant response rating (crop injury, 0 = no effect, 100 = complete kill) at 125 g/ha ([1]; Zea mays, post-emergence, 240 h, Postemergence, 125 g ai/ha, 0 to 100 scale, 0 is no effect, 100 is complete control)
15: Plant response rating, Morningglory [4, 12]
10: Johnsongrass plant response rating [2, 14] | Plant response rating (scale of 0 to 100), Soybean ([6]; Preemergence, 250 g ai/ha)
0: Plant response rating, Johnsongrass [2, 19] | Plant response rating, Johnsongrass [2, 20] | Plant response rating, Johnsongrass [2, 12] | Plant response rating, Johnsongrass [2, 13] | Morningglory plant response rating [4, 14] | Morningglory plant response rating [4, 21] | Plant response rating, Ragweed [5, 19] | Plant response rating, Ragweed [5, 20] | Plant response rating, Ragweed [5, 12] | Plant response rating, Ragweed [5, 13] | Plant response rating, Soybean [6, 19] | Plant response rating, Soybean [6, 20] | Plant response rating, Soybean [6, 12] | Plant response rating, Waterhemp [8, 19] | Plant response rating, Waterhemp [8, 20] | Plant response rating, Waterhemp [8, 12] | Plant response rating, Oat, Wild ([9]; 31 g ai/ha, scale 0 to 100 (0 no effect, 100 complete control)) | Plant response rating, Oat, Wild ([9]; 62 g ai/ha, scale 0 (no effect) to 100 (complete control)) | Plant response rating, Oat, Wild [9, 17]
80: Corn plant response rating (0 to 100 scale, 0 is no effect, 100 is complete control) ([1]; Postemergence, 500 g ai/ha) | Plant response rating, Barnyardgrass [7, 12] | Barnyardgrass plant response rating ([7]; Preemergence, 31 g ai/ha) | Plant response rating, Waterhemp [8, 16]
85: Plant response rating (scale of 0 to 100), Johnsongrass ([2]; Preemergence, 250 g ai/ha)
95: Plant response rating, Barnyardgrass [7, 16] | Plant response rating (scale of 0 to 100; 0 is no effect, 100 is complete control), Barnyardgrass ([7]; Preemergence, 250 g ai/ha)
5: Plant response rating, Morningglory [4, 19] | Plant response rating, Morningglory [4, 20] | Plant response rating, Soybean [6, 13] | Soybean plant response rating ([6]; Preemergence, 31 g ai/ha) | Plant response rating, Soybean [6, 16] | Plant response rating, Barnyardgrass [7, 19] | Plant response rating, Waterhemp [8, 13] | Plant response rating, Oat, Wild [9, 18]
90: Plant response rating, Barnyardgrass [7, 13] | Plant response rating, Barnyardgrass [7, 15] | Plant response rating (scale of 0 to 100), Waterhemp ([8]; Preemergence, 250 g ai/ha)
35: Plant response rating, Lambsquarters [3, 19] | Plant response rating, Morningglory [4, 13]
20: Plant response rating, Morningglory [4, 16]
75: Plant response rating, Johnsongrass [2, 16] | Plant response rating, Lambsquarters [3, 12] | Plant response rating, Lambsquarters [3, 16] | Waterhemp plant response rating [8, 21]
40: Johnsongrass plant response rating [2, 21] | Plant response rating (scale of 0 to 100), Morningglory ([4]; Preemergence, 250 g ai/ha)
65: Plant response rating, Lambsquarters [3, 20] | Plant response rating (scale of 0 to 100), Ragweed ([5]; Preemergence, 250 g ai/ha)
